Where a SMILES comes first, the peptide text is derived from it.
Tests used:
Format in all cases: in vivo, mouse
[1] = system: photoreceptors of rd10 mice; assay: PSVue-550 fluorescence fundoscopy of photoreceptor cell death (PS externalization); conditions: for PS externalization / photoreceptor cell death vs vehicle: daily eye drops 5 µl of 1 mg/ml from P15, PSVue-550 fundoscopy P21
Excerpt: (§1) Fluorescence fundoscopy with a cell death probe was chosen as a simple method for monitoring photoreceptor cell death in alive animals. A fluorescent probe, bis (zinc^2+-dipicolylamine)-550, (PSVue®-550) (Molecular Targeting Technologies Inc, cat. P-1005) was reconstituted in Hanks’ Balanced Salt Solution (HBSS, Quality Biological, cat. 114-062-101) according to the manufacturer’s instructions[28],[36]. This probe is suitable for in vivo use to specifically and transiently label dying photoreceptors, such as in living rats with retinal degeneration the Royal College of Surgeons rat model, in a non-invasive and non-toxic method without the need of intraocular injection. Briefly, a stock of 1 mM solution of PSVue®-550 was stored in the dark at 4 °C and used within 14 days directly as eye drop. After 3-4 h of light onset each mouse received eye drops of 5–10 μl of 1 mM PSVue®-550 in the left eye and HBSS in the right eye as control. The eye drop volume was chosen such that the eye cavity was filled without spillage outside the eye, and it was modified depending on eye size. […] To obtain in vivo retinal images of fundi, at 24 h after the probe was administered, the mice were anesthetized, and pupils were dilated with 1% tropicamide for 5 min and kept hydrated with GenTeal. Fluorescence was imaged using a retinal imaging microscope (Micron III, Phoenix Research Labs) using an FF02- 475/50 nm excitation filter (Semrock, Inc.). We observed some variability in optic nerve (ON) fluorescence that could not be readily explained, so the optic nerve was excluded from analyses in all samples.
(§2) To determine the natural history of photoreceptor death of rd10 and rd10/Serpinf1^-/- mice, we assessed photoreceptor cell death in live mice using the fluorescent probe termed PSVue® 550 to monitor PS externalization by fluorescence fundoscopy (Supplementary Fig. 2). Given the reports about the retinas of rd10 mice starting to show histological changes at P16, and with a peak in the number of TUNEL+ nuclei in the ONL at P17-18[13], we monitored PS externalization in photoreceptors of these mice undergoing degeneration before death onset. Eye drops of 1 mM PSVue® 550 solution in HBSS were administered to left eyes and HBSS (vehicle) to their contralateral right eyes of each mouse at ages P16, P20, P22 or P24. PS externalization was determined by fluorescence fundoscopy 24 h post-administration. PSVue labeling of phosphatidylserine (PS) externalization associated with photoreceptor cell death in the rd10 retina (Supplementary Figs. 2, 3).
(§3) Fig. 2 Effect of PEDF peptide eye drops on protection against photoreceptor cell death in rd10 and rd10/Serpinf1^-/- mice. a Illustration of the experimental timeline of peptide application. Eye drops containing 5 µl of 17-mer, H105A, or R99A peptides in HBSS were administered daily to eyes of rd10 and rd10/Serpinf1^-/- mice from P15 to P20. Vehicle (HBSS) was applied in contralateral eyes. At P20, PSVue® was applied via eye drops, and fluorescence fundoscopy was conducted at P21 to assess photoreceptor cell death. RE and LE refer to the right and left eyes, respectively. b Fluorescence fundoscopy micrographs. Representative fluorescence fundoscopy images of retinas from mice treated as in Panel a with eyedrops of 1 mg/ml of each peptide. Quantification of fluorescence intensity was performed using ImageJ, with average intensity values corrected for background fluorescence from eyes that had not received PSVue or peptides. Each line represents data from one animal comparing treated and contralateral eyes, with five eyes (n = 5) per condition. Statistical significance was determined by paired t-test (****p ≤ 0.0001, and ns > 0.05). Scale bar = 0.5 mm. c Dose response of peptide eye drops. Representative fluorescence fundoscopy micrographs showing retinas treated with varying concentrations of 17-mer and H105A peptides (0.0 mg/ml to 1.0 mg/ml) in rd10 and rd10/Serpinf1^-/- mice. […]

[2] = system: photoreceptors of rd10/Serpinf1-/- mice; assay: as above; conditions: daily eye drops 5 µl of 1 mg/ml from P15, PSVue-550 fundoscopy P21
Excerpt: as §1, §2, §3

[3] = system: photoreceptors of rd10 mice; assay: ONL thickness (histology, spider plot), rd10 mice; conditions: for OS length and ONL thickness vs vehicle-treated or untreated eyes: daily eye drops, P21
Experimental: Both eyes were oriented before enucleation to allow sectioning along the dorsal/ventral axis. Enucleated eyes from rd10 and rd10/Serpinf1^-/- mice were incised in the cornea and fixed in 2.5% glutaraldehyde for 20 min and then in 10% neutral buffered formalin at 4 °C for at least 48 h, followed by paraffin embedding, sectioning, and staining with either H&E or immunofluorescence procedures. Slides containing retinal sections were deparaffinized by immersing the slides in various subsequent ethanol dilutions(100%, 95%,70% and 50%), then rinsed with phosphate-buffered saline, pH 7.4 (PBS, Quality Biological, 119-069-101), followed by incubation in blocking buffer containing 0.5% normal donkey serum (Abcam, ab7475), 0.5% bovine serum albumin (BSA, GoldBio, A-420-100), 0.1% Triton X-100 (Sigma, T8787-100) in PBS pH 7.4 for 2 h at room temperature. For fluorescence microscopy, antibodies, and 0.1 µg/ml DAPI were used to immunostain and counterstain the nuclei, respectively. Antibodies used in the study are listed in Supplementary Table 3. Images were acquired using a ZEIS 700 confocal microscope. Fluorescence intensity was quantified using ImageJ, and a rectangle was selected around regions of interest (ROIs), channels were split for multiple antibodies, threshold was adjusted, noise was de-speckled, and fluorescence intensity was measured.
To generate spider plots, the ONL thickness was measured from images passing through the optic nerve (ON) acquired with light microscopy of the retina sections stained with H&E or images of retina sections stained with DAPI with a dorsal-ventral orientation. The ONL thickness in the entire retina sections was measured at 5 different positions from both sides of the ON using ImageJ[28]. Alternatively, for DAPI stained images, a customed macro implemented in ImageJ was used to select only the ONL.
Fig. 4 Effect of eyedrops of 17-mer and H105A peptides on photoreceptor morphology of rd10 and rd10/Serpinf1^-/- mice. a Illustration of the experimental timeline of peptide application. RE and LE refer to the right and left eyes, respectively. Histological Evaluation. Representative microphotographs of retina sections from rd10 (b) and rd10/Serpinf1^-/- (c) mice treated with 17-mer, H105A, or R99A peptides at 1 mg/ml, or with vehicle (HBSS), compared to wild type C57BL/6 J mice. Sections were stained with hematoxylin and eosin. Spider Plot illustrate the thickness of the outer nuclear layer (ONL) in rd10 (d) and rd10/Serpinf1^-/- (e) mice. Five retinas (n = 5) per group were analyzed and each data point represents the average ± SD per location relative to the optic nerve (ON), analyzed using One-way ANOVA with Šídák’s multiple comparisons test. […]

Compound | PS externalization / photoreceptor cell death vs vehicle [1] | eye drop concentration effective in restraining PS externalization (as low as) ([1]; titration 0.0-1.0 mg/ml, daily eye drops) | PS externalization / photoreceptor cell death vs vehicle [2] | ONL thickness ([3]; daily eye drops 5 µl of 1 mg/ml P15-P24, assessed P25) | OS length and ONL thickness vs vehicle-treated or untreated eyes [3] | ONL thickness ([3]; eye drops every other day P15-P23, assessed P25)
CC[C@H](C)[C@H](NC(=O)[C@H](CC(C)C)NC(=O)[C@H](CC(=O)O)NC(=O)[C@H](Cc1ccc(O)cc1)NC(=O)[C@H](Cc1ccc(O)cc1)NC(=O)[C@H](CC(C)C)NC(=O)[C@H](C)NC(=O)[C@H](CCCNC(=N)N)NC(=O)[C@H](C)NC(=O)[C@@H](NC(=O)[C@@H](NC(=O)[C@H](CO)NC(=O)[C@H](CCC(=O)O)NC(=O)[C@@H](NC(=O)[C@H](CCCNC(=N)N)NC(=O)[C@@H](N)CCC(N)=O)[C@@H](C)O)[C@@H](C)CC)[C@@H](C)CC)C(=O)N[C@@H](CO)C(=O)O [H105A] (H-QRTESIIARALYYDLIS-OH) | diminished fundi fluorescence | 0.5 mg/mL | diminished fundi fluorescence | a rescue in the ONL thickness | longer OS and thicker outer nuclear layer | a rescue in the ONL thickness
CC[C@H](C)[C@H](NC(=O)[C@H](CC(C)C)NC(=O)[C@H](CC(=O)O)NC(=O)[C@H](Cc1ccc(O)cc1)NC(=O)[C@H](Cc1ccc(O)cc1)NC(=O)[C@H](CC(C)C)NC(=O)[C@H](C)NC(=O)[C@H](CCCNC(=N)N)NC(=O)[C@H](Cc1c[nH]cn1)NC(=O)[C@@H](NC(=O)[C@@H](NC(=O)[C@H](CO)NC(=O)[C@H](CCC(=O)O)NC(=O)[C@@H](NC(=O)[C@H](C)NC(=O)[C@@H](N)CCC(N)=O)[C@@H](C)O)[C@@H](C)CC)[C@@H](C)CC)C(=O)N[C@@H](CO)C(=O)O [R99A] (H-QATESIIHRALYYDLIS-OH) | no major efficacy |  | no major efficacy |  | no effect | 

Reference: PMC11928584, “H105A peptide eye drops promote photoreceptor survival in murine and human models of retinal degeneration” (Communications Medicine, 2025)
